One data set addresses T1, human P2X7 (Homo sapiens, UniProt Q99572).
T1 construct: 1321N1 cells stably expressing the full length human P2X7 gene (1321N1-hP2X7)
T1 sequence (Q99572 1-595): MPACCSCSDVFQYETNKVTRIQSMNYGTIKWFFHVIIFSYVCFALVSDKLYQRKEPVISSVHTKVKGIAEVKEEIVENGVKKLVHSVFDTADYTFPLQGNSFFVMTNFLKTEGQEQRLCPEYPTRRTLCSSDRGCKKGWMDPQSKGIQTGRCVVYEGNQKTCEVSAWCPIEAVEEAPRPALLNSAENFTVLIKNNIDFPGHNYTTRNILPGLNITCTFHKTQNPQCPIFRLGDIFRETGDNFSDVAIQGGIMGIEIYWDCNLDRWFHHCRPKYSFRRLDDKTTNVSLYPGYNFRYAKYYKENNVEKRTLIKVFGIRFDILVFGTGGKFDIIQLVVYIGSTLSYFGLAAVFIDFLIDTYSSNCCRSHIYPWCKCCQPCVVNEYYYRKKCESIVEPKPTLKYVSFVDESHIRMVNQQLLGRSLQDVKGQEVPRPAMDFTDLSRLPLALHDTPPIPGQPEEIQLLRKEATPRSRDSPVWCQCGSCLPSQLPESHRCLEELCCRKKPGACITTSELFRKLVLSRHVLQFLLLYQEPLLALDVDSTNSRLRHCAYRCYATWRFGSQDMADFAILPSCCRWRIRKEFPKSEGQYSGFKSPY
Description: Intracellular Calcium Flux (FLIPR) Assay. The class given is cell-based. The conditions noted are these: 1321N1 cells stably expressing full length human P2X7; agonist 100 μM BzATP; fluo-3 calcium flux; read-out: FLIPR pIC50 hP2X7-1321n1 (converted). The protocol:
Stock solutions of compounds were prepared from powders as a 10 mM DMSO stock solution. These solutions were stored at RT during the two week period of these experiments to prevent freeze-thaw of the DMSO stocks. The DMSO stocks were added to the appropriate assay buffer at a concentration of 10 μM, and then diluted serially to the final concentrations that were tested. No observable precipitate was formed at any time during this process. The aqueous solutions of compounds as well as ATP (Sigma A7699) and BzATP (Sigma B6396) were prepared fresh for each day of experiment.
1321N1 cells stably expressing the full length human P2X7 gene (1321N1-hP2X7) and HEK293 cells stably expressing the full length rat P2X7 gene (HEK293-rP2X7) were obtained from the Roche Cell Culture Facility. 1321N1-hP2X7 cells were grown in Dulbecco's Modified Eagle's Medium (DMEM) high glucose supplemented with 10% FBS and 250 μg/mL G418. HEK293-rP2X7 cells were grown in DMEM/F-12 supplemented with 10% FBS, 1 mM CaCl2, 2 mM MgCl2, 2 mM L-Glutamine and 500 μg/ml G418. Cells were split such that they never became >70% confluent.
On the day prior to the experiment, 1321N1-hP2X7 or HEK293-rP2X7 cells were released into suspension with calcium-free PBS+Versene and washed by centrifugation with calcium-free PBS to remove the Versene. Cells were resuspended in growth medium at a density of 2.5×10^5 cells/mL and seeded into black walled, clear bottom 96 well plates (50,000 cells/well) approximately 18 hr prior to intracellular calcium flux experiments.
On the day of the experiment, plates were washed with FLIPR buffer (calcium- and magnesium-free Hank's Balanced Salt Solution (HBSS) supplemented with 10 mM Hepes, 2.5 mM probenecid and 2 mM calcium chloride) using a BIO-TEK 96 channel plate washer and incubated with […] fluo-3 dye at 37° C. for one hr. The dye was then removed by plate washing and the cells were allowed to equilibrate for 20 min at room temperature with antagonist or vehicle (FLIPR buffer). Agonist (100 μM BzATP final concentration for hP2X7; 5 μM BzATP final concentration or rP2X7) was added online with the FLIPR and fluorescence measurements made at 1 sec intervals for 60 sec followed by 3 sec intervals for a further 4 min (5 min total). A final addition of 5 μM ionomycin was made and the maximal BzATP-evoked fluorescence normalized to the maximal ionomycin-evoked fluorescence.
In general terms: Calcium assays in cells follow changes in intracellular calcium, usually with a dye or a luminescent sensor.

The results in this text go back to US20120149718A1, “Amido Compounds” (priority 2010, published 2012).

What is called melting point is the temperature, or range, at which the solid turns liquid.

For the compound `Cc1ccccc1CC(C(=O)Nc1cnc(Br)cn1)c1ccc(S(C)(=O)=O)cc1` (stereo not shown) [Compound I-1, N-(5-Bromo-pyrazin-2-yl)-2-(4-methanesulfonyl-phenyl)-3-o-tolyl-propionamide], the melting point is 193.5 to 194.8 °C. Also, on human P2X7, the IC50 is 389 nM. The compound `Cc1ccccc1CC(C(=O)Nc1nc2ccccc2o1)c1ccc(S(C)(=O)=O)cc1` (stereo not shown) [Compound I-2, N-Benzooxazol-2-yl-2-(4-methanesulfonyl-phenyl)-3-o-tolyl-propionamide] registered a melting point of 105.7 to 108.9 °C. Further, the IC50 at human P2X7 was 302 nM. The matching figures for `Cc1ccccc1CC(C(=O)Nc1nc2cc(Cl)ccc2o1)c1ccc(S(C)(=O)=O)cc1` (stereo not shown) [Compound I-3, N-(5-Chloro-benzooxazol-2-yl)-2-(4-methanesulfonyl-phenyl)-3-o-tolyl-propionamide]: 184 to 185 °C and 1170 nM. The matching figures for `CS(=O)(=O)c1ccc(C(Cc2ccccc2)C(=O)Nc2nc3ccccc3o2)cc1` (stereo not shown) [Compound I-4, N-Benzooxazol-2-yl-2-(4-methanesulfonyl-phenyl)-3-phenyl-propionamide]: 118 to 119 °C and 81.3 nM.

`CS(=O)(=O)c1ccc(C(Cc2ccccc2Cl)C(=O)Nc2nc3ccccc3o2)cc1` (stereo not shown) [Compound I-5, N-Benzooxazol-2-yl-3-(2-chloro-phenyl)-2-(4-methanesulfonyl-phenyl)-propionamide] displayed a melting point of 107 to 108 °C. Also, on human P2X7, the IC50 is 537 nM. The matching figures for `CS(=O)(=O)c1ccc(C(Cc2ccc(F)cc2Cl)C(=O)Nc2nc3ccccc3o2)cc1` (stereo not shown) [Compound I-6, N-Benzooxazol-2-yl-3-(2-chloro-4-fluoro-phenyl)-2-(4-methanesulfonyl-phenyl)-propionamide]: 127 to 128 °C and 794 nM.

Regarding `CS(=O)(=O)c1ccc(C(Cc2ccc(F)cc2)C(=O)Nc2nc3ccccc3o2)cc1` (stereo not shown) [Compound I-7, N-Benzooxazol-2-yl-3-(4-fluoro-phenyl)-2-(4-methanesulfonyl-phenyl)-propionamide], the melting point lay in the range of 109 to 110 °C. Also, the IC50 on human P2X7 was 63.1 nM. The matching figures for `CS(=O)(=O)c1ccc(C(Cc2ccccc2F)C(=O)Nc2nc3ccccc3o2)cc1` (stereo not shown) [Compound I-8, N-Benzooxazol-2-yl-3-(2-fluoro-phenyl)-2-(4-methanesulfonyl-phenyl)-propionamide]: 99 to 100 °C and 87.1 nM. The matching figures for `COc1ccc(CC(C(=O)Nc2nc3ccccc3o2)c2ccc(S(C)(=O)=O)cc2)cc1` (stereo not shown) [Compound I-9, N-Benzooxazol-2-yl-2-(4-methanesulfonyl-phenyl)-3-(4-methoxy-phenyl)-propionamide]: 101.9 to 105.9 °C and 229 nM. Compound `CS(=O)(=O)c1cccc(C(Cc2ccc(F)cc2)C(=O)Nc2nc3ccccc3o2)c1` (stereo not shown) [Compound I-12, N-Benzooxazol-2-yl-3-(4-fluoro-phenyl)-2-(3-methanesulfonyl-phenyl)-propionamide] displayed a melting point of 99 to 100 °C. The IC50 on human P2X7 was 741 nM. The matching figures for `CSc1cnc(NC(=O)C(Cc2ccc(F)cc2)c2ccc(S(C)(=O)=O)cc2)cn1` (stereo not shown) [Compound I-14, 3-(4-Fluoro-phenyl)-2-(4-methanesulfonyl-phenyl)-N-(5-methylsulfanyl-pyrazin-2-yl)-propionamide]: 187.7 to 188.4 °C and 1120 nM. For `CCOC(=O)c1cnc(NC(=O)C(Cc2ccc(F)cc2)c2ccc(S(C)(=O)=O)cc2)cn1` (stereo not shown) [Compound I-15, 5-[3-(4-Fluoro-phenyl)-2-(4-methanesulfonyl-phenyl)-propionylamino]-pyrazine-2-carboxylic acid ethyl ester], the melting point is 106 to 107 °C. The IC50 at human P2X7 is 224 nM. `CS(=O)(=O)c1ccc(C(Cc2ccc(F)cc2)C(=O)Nc2nc3ncccc3o2)cc1` (stereo not shown) [Compound I-18, 3-(4-Fluoro-phenyl)-2-(4-methanesulfonyl-phenyl)-N-oxazolo[4,5-b]pyridin-2-yl-propionamide] had a melting point of 261 to 263.7 °C. For the same compound, on human P2X7, the IC50 was 234 nM. The matching figures for `Cc1cnc(NC(=O)C(Cc2ccc(F)cc2)c2ccc(S(C)(=O)=O)cc2)cn1` (stereo not shown) [Compound I-19, 3-(4-Fluoro-phenyl)-2-(4-methanesulfonyl-phenyl)-N-(5-methyl-pyrazin-2-yl)-propionamide]: 172.4 to 175.3 °C and 708 nM.

On to `CS(=O)(=O)c1ccc(C(Cc2ccc(F)cc2)C(=O)Nc2nc3ccc(CO)cc3o2)cc1` (stereo not shown) [Compound I-20, 3-(4-Fluoro-phenyl)-N-(6-hydroxymethyl-benzooxazol-2-yl)-2-(4-methanesulfonyl-phenyl)-propionamide], for which the melting point lay within 128 to 130 °C. Further, on human P2X7, the IC50 is 20.4 nM.

Compound `COCc1cnc(NC(=O)C(Cc2ccc(F)cc2)c2ccc(S(C)(=O)=O)cc2)cn1` (stereo not shown) [Compound I-21, 3-(4-Fluoro-phenyl)-2-(4-methanesulfonyl-phenyl)-N-(5-methoxymethyl-pyrazin-2-yl)-propionamide] gave a melting point of 69 to 82.3 °C. Moreover, the IC50 at human P2X7 was 646 nM. The matching figures for `CCOCc1cnc(NC(=O)C(Cc2ccc(F)cc2)c2ccc(S(C)(=O)=O)cc2)cn1` (stereo not shown) [Compound I-22, N-(5-Ethoxymethyl-pyrazin-2-yl)-3-(4-fluoro-phenyl)-2-(4-methanesulfonyl-phenyl)-propionamide]: 99 to 100 °C and 741 nM. The matching figures for `CS(=O)(=O)c1ccc(C(Cc2ccc(F)cc2)C(=O)Nc2cncc(Cl)n2)cc1` (stereo not shown) [Compound I-25, N-(6-Chloro-pyrazin-2-yl)-3-(4-fluoro-phenyl)-2-(4-methanesulfonyl-phenyl)-propionamide]: 191.6 to 192.7 °C and 851 nM.

`CS(=O)(=O)c1ccc(C(Cc2cccc(F)c2)C(=O)Nc2cnc(CO)cn2)cc1` (stereo not shown) [Compound I-26, 3-(3-Fluoro-phenyl)-N-(5-hydroxymethyl-pyrazin-2-yl)-2-(4-methanesulfonyl-phenyl)-propionamide] registered a melting point of 82.8 to 98.7 °C. Also, the IC50 on human P2X7 was 339 nM.

`CS(=O)(=O)c1ccc(C(Cc2ccc(F)cc2)C(=O)Nc2nc3cnccc3o2)cc1` (stereo not shown) [Compound I-51, 3-(4-Fluoro-phenyl)-2-(4-methanesulfonyl-phenyl)-N-oxazolo[4,5-c]pyridin-2-yl-propionamide]: at human P2X7, the IC50 was 31.6 nM. `CS(=O)(=O)c1ccc(C(Cc2ccc(F)cc2)C(=O)Nc2nc3ccncc3o2)cc1` (stereo not shown) [Compound I-52, 3-(4-Fluoro-phenyl)-2-(4-methanesulfonyl-phenyl)-N-oxazolo[5,4-c]pyridin-2-yl-propionamide]: the IC50 at human P2X7 was 66.1 nM.

As to `CS(=O)(=O)c1ccc(CC(C(=O)Nc2nc3ccccc3o2)c2ccc(F)cc2)cc1` (stereo not shown) [Compound I-53, N-Benzooxazol-2-yl-2-(4-fluoro-phenyl)-3-(4-methanesulfonyl-phenyl)-propionamide], the IC50 at human P2X7 was 407 nM. Still for that read-out and setting: under `O=C(Nc1nc2ccccc2o1)C(Cc1ccc(F)cc1)c1ccncc1` (stereo not shown) [Compound I-54, N-Benzooxazol-2-yl-3-(4-fluoro-phenyl)-2-pyridin-4-yl-propionamide] stands 30.9 nM; under `CS(=O)(=O)c1ccc(C(Cc2ccncc2)C(=O)Nc2nc3ccccc3o2)cc1` (stereo not shown) [Compound I-55, N-Benzooxazol-2-yl-2-(4-methanesulfonyl-phenyl)-3-pyridin-4-yl-propionamide], 661 nM.
